Experimental data taken from patent US20160362416A1, “ANTIVIRAL COMPOUNDS” (Gilead Sciences, Inc., priority 2012, published 2016).

How the values were obtained:
Type in all cases: cell-based
[1] = tested on: stable HCV 1b RLuc replicon cells (genotype 1b Con1 replicon); assay: HCV genotype 1b RLuc replicon reporter assay; conditions: Hepatitis C virus; stable genotype 1b Con1 RLuc replicon cells, 72 hours
Experimental: (§1) Evaluation of cell-based anti-HCV activity: Antiviral potency (EC50) was determined using a Renilla luciferase (RLuc)-based HCV replicon reporter assay. To perform the assay for genotype 1 and 2a JFH-1, stable HCV 1a RLuc replicon cells (harboring a dicistronic genotype 1a H77 replicon that encodes a RLuc reporter), stable HCV lb RLuc replicon cells (harboring a dicistronic genotype 1b Conl replicon that encodes a RLuc reporter), or stable HCV 2a JFH-1 Rluc replicon cells (harboring a dicistronic genotype 2a JFH-1 replicon that encodes a RLuc reporter; with L31 present in NS5A) were dispensed into 384-well plates for EC50 assays. To perform the assay for genotype 2a (with M31 present in NS5A) or 2b, NS5A chimeric genotype 2a JFH-1 replicons that encodes a RLuc-Neo reporter and either genotype 2a J6 strain NS5A gene or genotype 2b MD2b-1 strain NS5A gene (both with M31 present) respectively, were either transiently transfected (t) into Huh-Lunet cells or were established as stably replicating replicon cells (s) is provided. Either cells were dispensed into 384-well plates for EC50 assays. To perform the assay for genotype 3 and 4, NS5A chimeric genotype 1b Conl replicons that encodes a Pi-RLuc reporter and either genotype 3a S52 strain NS5A gene or genotype 4a ED43 strain NS5A gene respectively, were transiently transfected (t) into Huh-Lunet cells, which were subsequently dispensed into 384-well plates. Compounds were dissolved in DMSO at a concentration of 10 mM and diluted in DMSO either manually or using an automated pipeting instrument. Serially 3-fold diluted compounds were either manually mixed with cell culture media and added to the seeded cells or directly added to the cells using an automated instrument. DMSO was used as a negative (solvent; no inhibition) control, and the protease inhibitor ITMN-191 was included at a concentration >100×EC50 as a positive control. 72 hours later, cells were lysed and Renilla luciferase activity quantified as recommended by the manufacturer (Promega-Madison, Wis.). Non-linear regression was performed to calculate EC50 values.

[2] = tested on: stable HCV 1a RLuc replicon cells (genotype 1a H77 replicon); assay: HCV genotype 1a RLuc replicon reporter assay; conditions: Hepatitis C virus; stable genotype 1a H77 RLuc replicon cells, 72 hours
Experimental: as §1

[3] = tested on: NS5A chimeric genotype 2a JFH-1 replicon with genotype 2a J6 strain NS5A gene (M31); assay: HCV genotype 2a J6 NS5A chimeric replicon assay, transient (t); conditions: Hepatitis C virus, 72 h, read-out: 2a J6 (t) (nM)
Experimental: as §1

[4] = tested on: NS5A chimeric genotype 2a JFH-1 replicon with genotype 2b MD2b-1 strain NS5A gene (M31); assay: HCV genotype 2b NS5A chimeric replicon assay, stable (s); conditions: Hepatitis C virus, 72 h, read-out: 2b (s) (nM)
Experimental: as §1

[5] = tested on: stable HCV 2a JFH-1 Rluc replicon cells (L31 present in NS5A); assay: HCV genotype 2a JFH-1 RLuc replicon reporter assay; conditions: Hepatitis C virus, 72 h, read-out: 2a JFH (nM)
Experimental: as §1

[6] = tested on: NS5A chimeric genotype 1b Con1 replicon with genotype 3a S52 strain NS5A gene; assay: HCV genotype 3a NS5A chimeric replicon assay; conditions: Hepatitis C virus, 72 h, read-out: 3a (nM)
Experimental: as §1

[7] = tested on: NS5A chimeric genotype 1b Con1 replicon with genotype 4a ED43 strain NS5A gene; assay: HCV genotype 4a NS5A chimeric replicon assay; conditions: Hepatitis C virus, 72 h, read-out: 4a (s) (nM)
Experimental: as §1, with “[…],” for “were transiently transfected (t) into Huh-Lunet cells,”

SMILES	EC50 [1]	EC50 [2]	EC50 [3]	EC50 [4]	EC50 [5]	EC50 [6]	EC50 [7]
COC[C@H]1C[C@@H](c2ncc(-c3ccc4c(c3)COc3cc5c(ccc6nc([C@@H]7CC[C@H](C)N7C(=O)[C@@H](NC(=O)OC)C(C)C)[nH]c65)cc3-4)[nH]2)N(C(=O)[C@@H](NC(=O)OC)C2CCOCC2)C1 [Comp 2, reference compound]	0.064 nM	0.055 nM	0.083 nM	–	–	–	–
COC(=O)N[C@H](C(=O)N1CCC[C@H]1c1ncc(-c2ccc3c(c2)COc2cc4c(ccc5nc([C@@H]6CCCN6C(=O)[C@@H](NC(=O)OC)C6CCOCC6)[nH]c54)cc2-3)[nH]1)C1CCOCC1 [Comp 11, reference compound]	0.416 nM	0.203 nM	–	0.203 nM	–	–	–
COC(=O)N[C@H](C(=O)N1[C@@H](C)CC[C@H]1c1ncc(-c2ccc3c(c2)COc2cc4c(ccc5nc([C@@H]6CC[C@H](C)N6C(=O)[C@@H](NC(=O)OC)C6(C)CCOCC6)[nH]c54)cc2-3)[nH]1)C(C)C [Example AD, Methyl [(2S)-1-{(2S,5S)-2-[5-(2-{(2S,5S)-1-[(2S)-2-[(methoxycarbonyl)amino]-2-(4-methyltetrahydro-2H-pyran-4-yl)acetyl]-5-methylpyrrolidin-2-yl}-1,11-dihydroisochromeno[4′,3′:6,7]naphtho[1,2-d]imidazol-9-yl)-1H-imidazol-2-yl]-5-methylpyrrolidin-1-yl}-3-methyl-1-oxobutan-2-yl]carbamate]	0.031 nM	0.021 nM	1.02 nM	0.351 nM	0.027 nM	0.074 nM	0.018 nM
CC[C@H]1CC[C@@H](c2nc3ccc4cc5c(cc4c3[nH]2)OCc2cc(-c3cnc([C@@H]4CC[C@H](C)N4C(=O)[C@@H](NC(=O)OC)C(C)C)[nH]3)ccc2-5)N1C(=O)[C@@H](NC(=O)OC)[C@@H]1CCCOC1 [Example AH, Methyl{(1S)-2-[(2S,5S)-2-ethyl-5-(9-{2-[(2S,5S)-1-{(2S)-2-[(methoxycarbonyl)amino]-3-methylbutanoyl}-5-methylpyrrolidin-2-yl]-1H-imidazol-5-yl}-1,11-dihydroisochromeno[4′,3′:6,7]naphtho[1,2-d]imidazol-2-yl)pyrrolidin-1-yl]-2-oxo-1-[(3S)-tetrahydro-2H-pyran-3-yl]ethyl}carbamate]	0.021 nM	0.026 nM	0.172 nM	0.104 nM	0.031 nM	0.154 nM	0.017 nM
COC(=O)N[C@H](C(=O)N1[C@@H](C)CC[C@H]1c1nc2ccc3cc4c(cc3c2[nH]1)OCc1cc(-c2cnc([C@@H]3CC[C@H](C)N3C(=O)[C@@H](NC(=O)OC)C3(C)CCOCC3)[nH]2)ccc1-4)C(C)C [Example AL, Methyl [(2S)-1-{(2S,5S)-2-[9-(2-{(2S,5S)-1-[(2S)-2-[(methoxycarbonyl)amino]-2-(4-methyltetrahydro-2H-pyran-4-yl)acetyl]-5-methylpyrrolidin-2-yl}-1H-imidazol-5-yl)-1,11-dihydroisochromeno[4′,3′:6,7]naphtho[1,2-d]imidazol-2-yl]-5-methylpyrrolidin-1-yl}-3-methyl-1-oxobutan-2-yl]carbamate]	0.03 nM	0.02 nM	0.776 nM	0.713 nM	0.026 nM	0.086 nM	0.028 nM
COC(=O)N[C@H](C(=O)N1[C@@H](C)CC[C@H]1c1ncc(-c2ccc3c(c2)COc2cc4c(ccc5nc([C@@H]6CC[C@H](C)N6C(=O)[C@H](NC(=O)OC)[C@H]6C[C@@H](C)O[C@@H](C)C6)[nH]c54)cc2-3)[nH]1)C(C)C [Example AN, Methyl {(2S)-1-[(2S,5S)-2-(5-{2-[(2S,5S)-1-{(2R)-2-[(2R,6S)-2,6-dimethyltetrahydro-2H-pyran-4-yl]-2-[(methoxycarbonyl)amino]acetyl}-5-methylpyrrolidin-2-yl]-1,11-dihydroisochromeno[4′,3′:6,7]naphtho[1,2-d]imidazol-9-yl}-1H-imidazol-2-yl)-5-methylpyrrolidin-1-yl]-3-methyl-1-oxobutan-2-yl}carbamate]	0.049 nM	4.44 nM	4.44 nM	4.44 nM	0.852 nM	4.44 nM	0.935 nM
COC(=O)N[C@H](C(=O)N1[C@@H](c2ncc(-c3ccc4c(c3)COc3cc5c(ccc6nc([C@H]7C[C@@H](C)[C@@H](C)N7C(=O)[C@@H](NC(=O)OC)C7C[C@@H](C)O[C@H](C)C7)[nH]c65)cc3-4)[nH]2)C[C@@H](C)[C@H]1C)C1C[C@@H](C)O[C@H](C)C1 (stereo partly drawn) [Example BC, Methyl {(1S)-1-[(2R,6R)-2,6-dimethyltetrahydro-2H-pyran-4-yl]-2-[(2R,3R,5R)-5-(5-{2-[(2R,4R,5R)-1-{(2S)-2-[(2R,6R)-2,6-dimethyltetrahydro-2H-pyran-4-yl]-2-[(methoxycarbonyl)amino]acetyl}-4,5-dimethylpyrrolidin-2-yl]-1,11-dihydroisochromeno[4′,3′:6,7]naphtho[1,2-d]imidazol-9-yl}-1H-imidazol-2-yl)-2,3-dimethylpyrrolidin-1-yl]-2-oxoethyl}carbamate]	2.47 nM	10.1 nM	–	23.1 nM	8.04 nM	23.3 nM	6.24 nM
CCOC(=O)N[C@H](C(=O)N1[C@@H](C)CC[C@H]1c1ncc(-c2ccc3c(c2)COc2cc4c(ccc5nc([C@@H]6CC[C@H](C)N6C(=O)[C@@H](NC(=O)OCC)C6C[C@@H](C)O[C@H](C)C6)[nH]c54)cc2-3)[nH]1)C1C[C@@H](C)O[C@H](C)C1 (stereo partly drawn) [Example BM, Ethyl {(1S)-1-[(2R,6R)-2,6-dimethyltetrahydro-2H-pyran-4-yl]-2-[(2S,5S)-2-(5-{2-[(2S,5S)-1-{(2S)-2-[(2R,6R)-2,6-dimethyltetrahydro-2H-pyran-4-yl]-2-[(ethoxycarbonyl)amino]acetyl}-5-methylpyrrolidin-2-yl]-1,11-dihydroisochromeno[4′,3′:6,7]naphtho[1,2-d]imidazol-9-yl}-1H-imidazol-2-yl)-5-methylpyrrolidin-1-yl]-2-oxoethyl}carbamate]	0.053 nM	0.034 nM	–	–	0.023 nM	0.143 nM	0.039 nM
